# Measurements as given in PubChem BioAssay AID1918991 (Molecular Pharmacology Branch, DTP, NCI, 2023).
# Several values for one entry are separate records, joined by “and”; a condition that tells them apart may be missing. Identical values can stand only once.
# Tested on: 186277-243-T-J2-PDC complex spheroid growth
# Test: Anticancer human tumor 186277-243-T-J2-PDC patient-derived colon adenocarcinoma cell line growth inhibition [AhR]
# Details: for viability, T/C: stronger effect = lower value; for IC50: curve of compound
# Source text: Multicellular complex tumor spheroid response to aryl hydrocarbon receptor antagonists in combination with a variety of drugs and investigational agents in selected tumor cell lines
# The current study was undertaken to assess response to aryl hydrocarbon receptor antagonists in combination with standard-of-care drugs and investigational agents in solid tumor complex spheroid models. Complex spheroids include a stromal component modeled by human endothelial cells (HUVEC) and fibroblasts modeled by human mesenchymal stem cells (MSCs). The concentration ranges selected for each drug and investigational agent were based upon clinically achievable concentrations if the clinical Cmax of the agent was known.
# Compounds. The drugs and investigational agents: BAY 2416964 (NSC825713), GNF351 (NSC835774), CH-223191 (NSC835775), CPI-455 (NSC825282), aza-TdCyd (NSC777586), decitabine (NSC127716), belinostat (NSC758774), entinostat (NSC756642), pevonedistat (NSC761192), tazemetostat (NSC777109), talazoparib (NSC765396), olaparib (NSC753686), selinexor (NSC780203), nedisertib (M3814, NSC802822), bortezomib (NSC756655), venetoclax (NSC766270), doxorubicin (NSC123127), elimusertib (BAY189344, NSC800525), ceralasertib (AZD6738, NSC777638), TAK-243 (NSC785004), alisertib (NSC759677), etoposide (NSC141540), topotecan (NSC609699), eribulin (NSC707389), gemcitabine (NSC613327), carboplatin (NSC241240), cisplatin (NSC119875), and SN-38 (NSC673596) were obtained from the National Cancer Institute (NCI) Developmental Therapeutics Program Chemical Repository (32). The FDA-approved anticancer drug set is available from the Developmental Therapeutics Program at https://dtp.cancer.gov/organization/dscb/obtaining/available plates.htm. […] The stock solutions were prepared in dimethyl sulfoxide (DMSO, Sigma-Aldrich, St. Louis, MO, cat. D2650), except for the platinum compounds which were prepared in saline (Quality Biological, Gaithersburg, MD, cat. 114-055-101), at 800-fold the tested concentration and stored at -70 degrees C prior to their use. All drugs and investigational agents were tested over a range starting from a high concentration at or near the clinical Cmax and decreasing in half-log increments. If the clinical Cmax for an agent had not been determined, the highest concentration tested was 10 microM (Table 1).
# Cell Culture. All cells were maintained in an incubator at 37 degrees C and 5% CO2 with 95% humidity. The PDC lines were cultured according to standard operating procedures established by the NCI PDMR (https://pdmr.cancer.gov). Briefly, all PDCs were thawed and cultured in Matrigel-coated flasks prepared with a working solution of 1X Ham's F-12 nutrient mix, without supplementation (Invitrogen, Waltham, MA, cat. 11765054), 100 U/mL penicillin-streptomycin (Invitrogen, cat. 15140122), and 2.5% Matrigel (Corning Inc., Corning, NY, cat. 354248) for the first three passages. All PDCs were cultured in complete DMEM/F-12 media containing advanced DMEM/F-12 (Invitrogen, cat. 12634028), 4.9% defined fetal bovine serum, heat inactivated (HyClone Laboratories Inc., Logan, UT, cat. SH30070.03HI), 389 ng/mL hydrocortisone (Sigma-Aldrich, cat. H4001), 9.7 ng/mL human EGF recombinant protein (Invitrogen, cat. PHG0313), 23.4 microg/mL adenine (Sigma-Aldrich, cat. A2786), 97.3 U/mL penicillin-streptomycin (Invitrogen, cat. 15140122), 1.9 mM L-glutamine (Invitrogen, cat. 25030081), and 9.7 microM Y-27632 dihydrochloride (Tocris Bioscience, Bristol, United Kingdom, cat. 1254). The PDCs were cultured in complete DMEM/F12 media without 10 microM Y-27632 dihydrochloride for at least two passages prior to the screen. The established cell lines NCI-H1341 and […] were cultured in DMEM/F-12, HEPES (Invitrogen, cat. 11330032), 5% defined fetal bovine serum (HyClone Laboratories Inc., cat. SH30070.03), ITS premix universal culture supplement [insulin (5 microg/mL), transferrin (5 microg/mL), and selenious acid (5 ng/mL)] […]
# 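Note: spheroids exposed to compounds for seven days before the viability read.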
# 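Throughout, for viability, T/C: luminescent signal used as a stand-in for viable cell amount; 100% = DMSO vehicle control wells.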
SMILES,IC50,"viability, T/C (compound 0.03 µM)","viability, T/C (compound 0.0949 µM)","viability, T/C (compound 0.3 µM)","viability, T/C (compound 0.0316 µM)","viability, T/C (compound 0.316 µM)","viability, T/C (compound 1 µM)","viability, T/C (compound 0.1 µM)","viability, T/C (compound 3.16 µM)","viability, T/C (compound 10 µM)",also measured
CC[C@@]1(O)C(=O)OCc2c1cc1n(c2=O)Cc2cc3c(CN(C)C)c(O)ccc3nc2-1,> 100 nM and 19.6 nM,,,,106% and 37% and 119%,,,65.8% and 19.4% and 111%,,,"viability, T/C (compound 0.000316 µM): 100% and 99.5% and 110%; viability, T/C (compound 0.001 µM): 94.2% and 104% and 99.4%; viability, T/C (compound 0.00316 µM): 104% and 95.7% and 114%; viability, T/C (compound 0.01 µM): 118% and 68.7% and 119%"
CCc1c2c(nc3ccc(O)cc13)-c1cc3c(c(=O)n1C2)COC(=O)[C@]3(O)CC,,49.7% and 83% and 17.6%,29.7% and 43.6% and 10.7%,15.3% and 26.9% and 7.34%,,,,,,,"viability, T/C (compound 0.000949 µM): 118% and 125% and 49.3%; viability, T/C (compound 0.003 µM): 111% and 144% and 37.7%; viability, T/C (compound 0.00949 µM): 70.2% and 115% and 18.8%"
COc1cc(C2c3cc4c(cc3C(OC3OC5COC(C)OC5C(O)C3O)C3COC(=O)C23)OCO4)cc(OC)c1O (stereo not drawn),,,,,97.2% and 86.2% and 92.7%,118% and 44.4% and 142%,58.8% and 22.6% and 97.1%,126% and 88.1% and 97.8%,51.1% and 17.5% and 85.7%,25.6% and 10% and 46.4%,
COc1cccc2c1C(=O)c1c(O)c3c(c(O)c1C2=O)CC(O)(C(=O)CO)CC3OC1CC(N)C(O)C(C)O1 (stereo not drawn),,,,,111% and 154% and 44.9%,,0.9% and 5.52% and 0.26%,74.9% and 144% and 30.5%,0.36% and 0.59% and 0.22%,0.28% and 1.4% and 0.25%,
Nc1ccn(C2OC(CO)C(O)C2(F)F)c(=O)n1 (stereo not drawn),< 31.6 nM,,,,9.07% and 4.89% and 17.2%,8.12% and 4.79% and 17.4%,8.52% and 4.4% and 18.1%,8.27% and 4.63% and 16.2%,9.77% and 4.35% and 19.5%,9.11% and 3.84% and 21.3%,
Nc1ncn(C2CC(O)C(CO)O2)c(=O)n1 (stereo not drawn),> 1000 nM and 982 nM,,,,98.8% and 108% and 88.1%,137% and 110% and 65.2%,133% and 121% and 49.5%,114% and 107% and 76.6%,,,"viability, T/C (compound 0.00316 µM): 102% and 96.5% and 89.6%; viability, T/C (compound 0.01 µM): 104% and 110% and 93.2%"
Nc1ncn(C2CC(O)C(CO)S2)c(=O)n1 (stereo not drawn),> 300 nM and 134 nM,125% and 111% and 78.5%,128% and 116% and 60.8%,102% and 117% and 26.4%,,,,,,,"viability, T/C (compound 0.000949 µM): 87.2% and 104% and 95.7%; viability, T/C (compound 0.003 µM): 88% and 111% and 97.1%; viability, T/C (compound 0.00949 µM): 108% and 115% and 92.5%"

# More lines, main results first:
IC50,SMILES,"viability, T/C (compound 0.03 µM)","viability, T/C (compound 0.0949 µM)","viability, T/C (compound 0.3 µM)","viability, T/C (compound 0.0316 µM)","viability, T/C (compound 0.316 µM)","viability, T/C (compound 1 µM)","viability, T/C (compound 0.1 µM)","viability, T/C (compound 3.16 µM)","viability, T/C (compound 10 µM)",also measured
14.2 nM and 15.6 nM and 5.49 nM,CC(C)CC(NC(=O)C(Cc1ccccc1)NC(=O)c1cnccn1)B(O)O (stereo not drawn),0.39% and 1.22% and 0.15%,0.17% and 1.7% and 0.16%,0.21% (2×) and 1.15%,,,,,,,"viability, T/C (compound 0.000949 µM): 106% and 98.7% and 108%; viability, T/C (compound 0.003 µM): 96.2% and 116% and 102%"
80.6 nM and 81.6 nM and 23.5 nM,CC1COCCN1c1cc(-c2ccnn2C)c2ccnc(-c3ccn[nH]3)c2n1 (stereo not drawn),,,,126% and 103% and 38.2%,8.06% and 11.5% and 3.15%,5.02% and 8.23% and 2.74%,,,,"viability, T/C (compound 0.00316 µM): 96.9% and 95.5% and 78.2%; viability, T/C (compound 0.01 µM): 94.7% and 106% and 89.9%"
> 3000 nM,CCN(c1cc(-c2ccc(CN3CCOCC3)cc2)cc(C(=O)NCc2c(C)cc(C)[nH]c2=O)c1C)C1CCOCC1,99.7% and 104% and 85%,95.2% and 112% and 74.4%,98.2% and 109% and 93.8%,,,,,,,"viability, T/C (compound 0.00949 µM): 107% and 112% and 86.8%; viability, T/C (compound 0.949 µM): 101% and 112% and 91.5%; viability, T/C (compound 3 µM): 106% and 104% and 89.5%"
> 100 nM,Cn1ncnc1C1c2n[nH]c(=O)c3cc(F)cc(c23)NC1c1ccc(F)cc1 (stereo not drawn),,,,99.6% and 119% and 78.8%,,,110% and 114% and 69%,,,"viability, T/C (compound 0.000316 µM): 102% and 97.2% and 113%; viability, T/C (compound 0.001 µM): 97.8% and 111% and 108%; viability, T/C (compound 0.00316 µM): 91.4% and 107% and 93.2%; viability, T/C (compound 0.01 µM): 103% and 107% and 102%"
4530 nM and 5440 nM and 639 nM,Nc1ccccc1NC(=O)c1ccc(CNC(=O)OCc2cccnc2)cc1,,,,88.5% and 90.8% and 86.3%,76.2% and 99.5% and 68.8%,86.5% and 92.2% and 37%,93.2% and 91.9% and 87.4%,68.6% and 79.5% and 12.6%,8.95% and 16.8% and 0.82%,
1160 nM and 2160 nM and 285 nM,O=C(C=Cc1cccc(S(=O)(=O)Nc2ccccc2)c1)NO,,,,96.8% and 107% and 99.7%,99.1% and 95.8% and 46.9%,55.2% and 91.8% and 13.2%,93.5% and 112% and 84.1%,,5.03% and 5.28% and 0.5%,
474 nM and 524 nM and 61.5 nM,O=C(C=Cn1cnc(-c2cc(C(F)(F)F)cc(C(F)(F)F)c2)n1)NNc1cnccn1,102% and 90.7% and 65.3%,102% and 91.8% and 41.7%,74.7% and 80.7% and 10.9%,,,,,,,"viability, T/C (compound 0.00949 µM): 92.2% and 97% and 81.2%; viability, T/C (compound 0.949 µM): 12.6% and 17.4% and 2.87%; viability, T/C (compound 3 µM): 4.45% and 8.73% and 1.48%"
> 10000 nM and 6300 nM,O=C(c1cc(Cc2n[nH]c(=O)c3ccccc23)ccc1F)N1CCN(C(=O)C2CC2)CC1,,,,97.8% and 98% and 85.2%,114% and 94.5% and 98.3%,109% and 92.3% and 85%,93.2% and 103% and 106%,132% and 89.9% and 70.9%,120% and 114% and 36.5%,
